The source of these data is patent US8188059B2, “Compounds and methods for modulating expression of GCGR” (Isis Pharmaceuticals, Inc., priority 2006, dated 2012).

The data set deals with GCGR mRNA. As to the kind of experiment: GCGR mRNA levels in liver of C57/BL6 mice, single i.p. dose (Example 4, Tables 35-41). It is filed as in vivo, mouse. Particulars: 48 h. An outline of the steps:
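Male C57/BL6 mice, eight weeks old, four per group, received one i.p. dose of 2′-MOE phosphorothioate GCGR antisense oligonucleotide, some C16-conjugated, at 6.25, 12.5, 25 or 50 mg. Liver GCGR mRNA measured by real-time PCR 48 h post-dose; expressed as percent of saline control.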

Strand notation (5' to 3'): a small letter for the sugar, then the base; units joined by * are phosphorothioate-linked, units joined directly phosphodiester-linked; [ ] holds rarer units or linkages, { } end groups; capitals alone tell only the bases. e = 2'-O-(2-methoxyethyl) (MOE); [5mC] = 5-methylcytosine; d = 2'-deoxy (DNA)

Take “148364 (antisense eT*eG*e[5mC]*eA*e[5mC]*dT*dT*dT*dG*dT*dG*dG*dT*dA*d[5mC]*e[5mC]*eA*eA*eG*eG) [compound 148364]”: the “GCGR mRNA levels in liver” value reads like this: (6.25 mg/kg single i.p., Table 35 comparison ISIS 148364 & ISIS 386626) 62% of saline control; (6.25 mg/kg single i.p., Table 36 comparison ISIS 148364 & ISIS 386627) 86% of saline control; (6.25 mg/kg single i.p., Table 37 comparison ISIS 148364 & ISIS 386593) 86% of saline control; (6.25 mg/kg single i.p., Table 38 comparison ISIS 148364 & ISIS 386628) 101% of saline control; (6.25 mg/kg single i.p., Table 39 comparison ISIS 148364 & ISIS 386594) 96% of saline control; (12.5 mg/kg single i.p., Table 35 comparison ISIS 148364 & ISIS 386626) 87% of saline control. Further, the “GCGR mRNA levels in liver” value is recorded as 105% of saline control (12.5 mg/kg single i.p., Table 36 comparison ISIS 148364 & ISIS 386627); 105% of saline control (12.5 mg/kg single i.p., Table 37 comparison ISIS 148364 & ISIS 386593); 98% of saline control (12.5 mg/kg single i.p., Table 38 comparison ISIS 148364 & ISIS 386628); 102% of saline control (12.5 mg/kg single i.p., Table 39 comparison ISIS 148364 & ISIS 386594); 79% of saline control (25 mg/kg single i.p., Table 35 comparison ISIS 148364 & ISIS 386626); 87% of saline control (25 mg/kg single i.p., Table 36 comparison ISIS 148364 & ISIS 386627). Besides, the “GCGR mRNA levels in liver” value runs as follows: (25 mg/kg single i.p., Table 37 comparison ISIS 148364 & ISIS 386593) 74% of saline control; (25 mg/kg single i.p., Table 38 comparison ISIS 148364 & ISIS 386628) 77% of saline control; (25 mg/kg single i.p., Table 39 comparison ISIS 148364 & ISIS 386594) 98% of saline control; (50 mg/kg single i.p., Table 35 comparison ISIS 148364 & ISIS 386626) 36% of saline control; (50 mg/kg single i.p., Table 36 comparison ISIS 148364 & ISIS 386627) 63% of saline control; (50 mg/kg single i.p., Table 37 comparison ISIS 148364 & ISIS 386593) 56% of saline control. The “GCGR mRNA levels in liver” value reads like this: (50 mg/kg single i.p., Table 38 comparison ISIS 148364 & ISIS 386628) 42% of saline control; (50 mg/kg single i.p., Table 39 comparison ISIS 148364 & ISIS 386594) 59% of saline control.
